Data published in patent US20070117743A1, “New antitumoral compounds” (priority 2003, published 2007).
Where a SMILES comes first, the peptide text is derived from it. Bridges are numbered along the chain shown (N, C = ends). [ ]: non-standard residue; d: D form. The star is where a group is joined. Bip = N[C@@H](Cc1ccc(-c2ccccc2)cc1)C(=O)O; 2Nal = N[C@@H](Cc1ccc2ccccc2c1)C(=O)O; d(aIle) = CC[C@H](C)[C@@H](N)C(=O)O; d(aThr) = C[C@@H](O)[C@@H](N)C(=O)O; Hexanoyl(5-Me) = CC(C)CCCC(=O)*; Orn = NCCC[C@H](N)C(=O)O; Dhb = C/C=C(\N)C(=O)O

Legend:
Format in all cases: cell-based, human
A-549 = experiment: SRB colorimetric assay of cell growth and viability, A-549; conditions: A-549, 48 hours exposure; for GI50: read-out: GI50 A-549; for CC50: read-out: LC50 A-549
SK-MEL-28 = experiment: SRB colorimetric assay of cell growth and viability, SK-MEL-28; conditions: MEL-28, 48 hours exposure; for CC50: read-out: LC50 MEL-28
HT-29 = experiment: SRB colorimetric assay of cell growth and viability, HT-29; conditions: HT-29, 48 hours exposure; for GI50: read-out: GI50 HT-29; for CC50: read-out: LC50 HT-29
LoVo = experiment: SRB colorimetric assay of cell growth and viability, LoVo; conditions: LOVO, 48 hours exposure; for CC50: read-out: LC50 LOVO
LoVo-Dox = experiment: SRB colorimetric assay of cell growth and viability, LoVo-Dox; conditions: LOVO-DOX, 48 hours exposure; for CC50: read-out: LC50 LOVO-DOX
How it was run: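 Here, cells grow drug-free for 18 h, then receive sample dilutions from 10 down to 10^−8 μg/mL for 48 h at 37° C. Protein-bound SRB is solubilized in Tris and quantified at 490 nm.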

DU-145 = experiment: SRB colorimetric assay of cell growth and viability, DU-145; conditions: DU-145; 48 hours exposure
SK-BR-3 = experiment: SRB colorimetric assay of cell growth and viability, SK-BR-3; conditions: SK-BR-3; 48 hours exposure
IGROV-1 = experiment: SRB colorimetric assay of cell growth and viability, IGROV-1; conditions: IGROV; 48 hours exposure
IGROV-ET = experiment: SRB colorimetric assay of cell growth and viability, IGROV-ET; conditions: IGROV-ET, 48 hours exposure; for CC50: read-out: LC50 IGROV-ET
HeLa = experiment: SRB colorimetric assay of cell growth and viability, HeLa; conditions: HELA, 48 hours exposure; for CC50: read-out: LC50 HELA
HeLa-APL = experiment: SRB colorimetric assay of cell growth and viability, HeLa-APL; conditions: HELA-APL, 48 hours exposure; for CC50: read-out: LC50 HELA-APL
K-562 = experiment: SRB colorimetric assay of cell growth and viability, K-562; conditions: K-562, 48 hours exposure; for CC50: read-out: LC50 K-562
PANC-1 = experiment: SRB colorimetric assay of cell growth and viability, PANC-1; conditions: PANC-1, 48 hours exposure; for CC50: read-out: LC50 PANC-1

Structure (SMILES) | TGI A-549 (A-549) [Molar] | GI50 (A-549) [nM] | CC50 (A-549) [nM] | GI50 (SK-MEL-28) [nM] | TGI MEL-28 (SK-MEL-28) [Molar] | CC50 (SK-MEL-28) [nM] | TGI HT-29 (HT-29) [Molar] | GI50 (HT-29) [nM] | CC50 (HT-29) [nM] | GI50 (LoVo) [nM] | TGI LOVO (LoVo) [Molar] | CC50 (LoVo) [nM] | GI50 (LoVo-Dox) [nM] | TGI LOVO-DOX (LoVo-Dox) [Molar] | CC50 (LoVo-Dox) [nM] | GI50 (DU-145) [nM] | LC50 (concentration causing 50% net cell kill) (DU-145) [nM] | TGI DU-145 (DU-145) [Molar] | GI50 (SK-BR-3) [nM] | LC50 (SK-BR-3) [nM] | also measured
C/C=C1\NC(=O)[C@H](Cc2ccc3ccccc3c2)NC(=O)[C@@H](C(C)C)NC(=O)[C@@H]([C@@H](C)CC)NC(=O)[C@H](NC(=O)[C@H](NC(=O)[C@H](CCCN)NC(=O)[C@H]2CCCN2C(=O)[C@H](NC(=O)[C@@H](NC(=O)[C@@H](NC(=O)[C@H](NC(=O)CCCC(C)C)C(C)C)[C@@H](C)O)C(C)C)C(C)C)[C@@H](C)CC)[C@@H](C)OC(=O)[C@H](C(C)C)NC1=O [Compound 85, [Nal^3]-KF] ({Hexanoyl(5-Me)}-[dV]TV[dV][dP][Orn][d(aIle)][d(aThr)][d(aIle)][dV][2Nal][Dhb]V; ester 8-C) | 3.39E−07 | 192 | 599 | 230 | 3.64E−07 | 579 | 1.16E−07 | 73.1 | 278 | 32.8 | 8.16E−08 | 192 | 37 | 8.77E−08 | 847 | 111 | 488 | 2.53E−07 | 37.1 | 170 | TGI SK-BR-3 (SK-BR-3): 5.80E−08 Molar; GI50 (IGROV-1): 49.8 nM; LC50 (concentration causing 50% net cell killing) (IGROV-1): 169 nM; TGI IGROV (IGROV-1): 9.81E−08 Molar; GI50 (IGROV-ET): 74.3 nM; TGI IGROV-ET (IGROV-ET): 1.44E−07 Molar; CC50 (IGROV-ET): 425 nM; GI50 (HeLa): 78.6 nM; TGI HELA (HeLa): 1.94E−07 Molar; CC50 (HeLa): 462 nM; GI50 (HeLa-APL): 90.7 nM; TGI HELA-APL (HeLa-APL): 1.91E−07 Molar; CC50 (HeLa-APL): 427 nM; GI50 (K-562): 301 nM; TGI K-562 (K-562): 7.13E−07 Molar; CC50 (K-562): 1380 nM; GI50 (PANC-1): 694 nM; TGI PANC-1 (PANC-1): 1.04E−06 Molar; CC50 (PANC-1): 1570 nM
C/C=C1\NC(=O)[C@H](Cc2ccc(-c3ccccc3)cc2)NC(=O)[C@@H](C(C)C)NC(=O)[C@@H]([C@@H](C)CC)NC(=O)[C@H](NC(=O)[C@H](NC(=O)[C@H](CCCN)NC(=O)[C@H]2CCCN2C(=O)[C@H](NC(=O)[C@@H](NC(=O)[C@@H](NC(=O)[C@H](NC(=O)CCCC(C)C)C(C)C)[C@@H](C)O)C(C)C)C(C)C)[C@@H](C)CC)[C@@H](C)OC(=O)[C@H](C(C)C)NC1=O [Compound 86, [Bip^3]-KF] ({Hexanoyl(5-Me)}-[dV]TV[dV][dP][Orn][d(aIle)][d(aThr)][d(aIle)][dV][Bip][Dhb]V; ester 8-C) | 2.87E−07 | 125 | 810 | 183 | 4.11E−07 | 2480 | 3.73E−07 | 129 | 5070 | 63.7 | 2.89E−07 | 4680 | 73.3 | 2.69E−07 | ≥ 6430 | 124 | 527 | 2.56E−07 | 28.9 | 5070 | TGI SK-BR-3 (SK-BR-3): 1.79E−07 Molar; GI50 (IGROV-1): 181 nM; LC50 (concentration causing 50% net cell killing) (IGROV-1): ≥ 6430 nM; TGI IGROV (IGROV-1): 5.23E−07 Molar; GI50 (IGROV-ET): 150 nM; TGI IGROV-ET (IGROV-ET): 1.00E−06 Molar; CC50 (IGROV-ET): ≥ 6430 nM; GI50 (HeLa): 177 nM; TGI HELA (HeLa): 8.17E−07 Molar; CC50 (HeLa): 3900 nM; GI50 (HeLa-APL): 424 nM; TGI HELA-APL (HeLa-APL): 1.65E−06 Molar; CC50 (HeLa-APL): 6070 nM; GI50 (K-562): 1100 nM; TGI K-562 (K-562): 2.32E−06 Molar; CC50 (K-562): 4870 nM; GI50 (PANC-1): 984 nM; TGI PANC-1 (PANC-1): 2.17E−06 Molar; CC50 (PANC-1): 4770 nM
